Calls of active or inactive are those of the source. The calls are words filed in the database; no cut-off is given here.
Experiments:
Assay type in all cases: functional
M14 = test: Growth inhibition of human M14 cells assessed as growth inhibition at 10 uM by sulforhodamine B assay; settings: read-out: GI
SF-539 = test: Growth inhibition of human SF539 cells assessed as cell growth at 10 uM by sulforhodamine B assay; settings: read-out: Activity
NCI-H460 = test: Growth inhibition of human NCI-H460 cells assessed as growth inhibition at 10 uM by sulforhodamine B assay; settings: read-out: GI
OVCAR-4 = test: Growth inhibition of human OVCAR4 cells assessed as growth inhibition at 10 uM by sulforhodamine B assay; settings: read-out: GI
MCF7 = test: Growth inhibition of human MCF7 cells assessed as cell growth at 10 uM by sulforhodamine B assay; settings: read-out: Activity
MDA-MB-468 = test: Growth inhibition of human MDA-MB-468 cells assessed as growth inhibition at 10 uM by sulforhodamine B assay; settings: read-out: GI
786-0 = test: Growth inhibition of human 786-0 cells assessed as growth inhibition at 10 uM by sulforhodamine B assay
MDA-MB-435 = test: Growth inhibition of human MDA-MB-435 cells assessed as cell growth at 10 uM by sulforhodamine B assay; settings: read-out: Activity
[1] = Growth inhibition of human NCI-ADR-RES cells assessed as cell growth at 10 uM by sulforhodamine B assay; settings: read-out: Activity
SK-MEL-28 [2] = test: Growth inhibition of human SK-MEL-28 cells assessed as growth inhibition at 10 uM by sulforhodamine B assay; settings: read-out: GI
SN12C = test: Growth inhibition of human SN12C cells assessed as growth inhibition at 10 uM by sulforhodamine B assay; settings: read-out: GI
OVCAR-3 [3] = test: Growth inhibition of human OVCAR3 cells assessed as cell growth at 10 uM by sulforhodamine B assay; settings: read-out: Activity
NCI-H522 [4] = test: Growth inhibition of human NCI-H522 cells assessed as growth inhibition at 10 uM by sulforhodamine B assay; settings: read-out: GI
PC-3 [5] = test: Growth inhibition of human PC3 cells assessed as growth inhibition at 10 uM by sulforhodamine B assay; settings: read-out: GI
HCT-15 = test: Growth inhibition of human HCT15 cells assessed as cell growth at 10 uM by sulforhodamine B assay; settings: read-out: Activity
U-251 = test: Growth inhibition of human U251 cells assessed as growth inhibition at 10 uM by sulforhodamine B assay; settings: read-out: GI
OVCAR-8 = test: Growth inhibition of human OVCAR8 cells assessed as cell growth at 10 uM by sulforhodamine B assay; settings: read-out: Activity
[6] = Growth inhibition of human HCC2998 cells assessed as cell growth at 10 uM by sulforhodamine B assay; settings: HCC 2998, read-out: Activity
NCI-H522 [7] = test: Growth inhibition of human NCI-H522 cells assessed as cell growth at 10 uM by sulforhodamine B assay; settings: read-out: Activity
A498 = test: Growth inhibition of human A498 cells assessed as growth inhibition at 10 uM by sulforhodamine B assay
NCI-H322M = test: Growth inhibition of human NCI-H322M cells assessed as growth inhibition at 10 uM by sulforhodamine B assay
SK-MEL-2 = test: Growth inhibition of human SK-MEL-2 cells assessed as cell growth at 10 uM by sulforhodamine B assay; settings: read-out: Activity
OVCAR-5 = test: Growth inhibition of human OVCAR5 cells assessed as cell growth at 10 uM by sulforhodamine B assay; settings: read-out: Activity
A549 = test: Growth inhibition of human A549/ATCC cells assessed as cell growth at 10 uM by sulforhodamine B assay; settings: read-out: Activity
SF-268 = test: Growth inhibition of human SF268 cells assessed as growth inhibition at 10 uM by sulforhodamine B assay; settings: read-out: GI
CAKI-1 [8] = test: Growth inhibition of human CAKI-1 cells assessed as growth inhibition at 10 uM by sulforhodamine B assay; settings: read-out: GI
MOLT-4 = test: Growth inhibition of human MOLT4 cells assessed as growth inhibition at 10 uM by sulforhodamine B assay; settings: read-out: GI
CAKI-1 [9] = test: Growth inhibition of human CAKI-1 cells assessed as cell growth at 10 uM by sulforhodamine B assay; settings: read-out: Activity
HCT-116 = test: Growth inhibition of human HCT116 cells assessed as growth inhibition at 10 uM by sulforhodamine B assay; settings: read-out: GI
RPMI-8226 [10] = test: Growth inhibition of human RPMI8226 cells assessed as growth inhibition at 10 uM by sulforhodamine B assay; settings: read-out: GI
HT-29 = test: Growth inhibition of human HT-29 cells assessed as growth inhibition at 10 uM by sulforhodamine B assay; settings: read-out: GI
LOX IMVI = test: Growth inhibition of human LOXIMVI cells assessed as growth inhibition at 10 uM by sulforhodamine B assay; settings: read-out: GI
SF-295 [11] = test: Growth inhibition of human SF295 cells assessed as cell growth at 10 uM by sulforhodamine B assay; settings: read-out: Activity
[12] = Growth inhibition of human HCC2998 cells assessed as growth inhibition at 10 uM by sulforhodamine B assay; settings: HCC 2998, read-out: GI
MDA-MB-231 = test: Growth inhibition of human MDA-MB-231 cells assessed as cell growth at 10 uM by sulforhodamine B assay; settings: read-out: Activity
NCI-H226 [13] = test: Growth inhibition of human NCI-H226 cells assessed as cell growth at 10 uM by sulforhodamine B assay; settings: read-out: Activity
CCRF-CEM = test: Growth inhibition of human CCRF-CEM cells assessed as cell growth at 10 uM by sulforhodamine B assay; settings: read-out: Activity
UACC-62 = test: Growth inhibition of human UACC62 cells assessed as cell growth at 10 uM by sulforhodamine B assay; settings: read-out: Activity
OVCAR-3 [14] = test: Growth inhibition of human OVCAR3 cells assessed as growth inhibition at 10 uM by sulforhodamine B assay; settings: read-out: GI
NCI-H23 = test: Growth inhibition of human NCI-H23 cells assessed as growth inhibition at 10 uM by sulforhodamine B assay; settings: read-out: GI
RPMI-8226 [15] = test: Growth inhibition of human RPMI8226 cells assessed as cell growth at 10 uM by sulforhodamine B assay; settings: read-out: Activity
NCI-H226 [16] = test: Growth inhibition of human NCI-H226 cells assessed as growth inhibition at 10 uM by sulforhodamine B assay; settings: read-out: GI
SK-MEL-28 [17] = test: Growth inhibition of human SK-MEL-28 cells assessed as cell growth at 10 uM by sulforhodamine B assay; settings: read-out: Activity
SK-OV-3 = test: Growth inhibition of human SKOV3 cells assessed as growth inhibition at 10 uM by sulforhodamine B assay; settings: read-out: GI
PC-3 [18] = test: Growth inhibition of human PC3 cells assessed as cell growth at 10 uM by sulforhodamine B assay; settings: read-out: Activity
SF-295 [19] = test: Growth inhibition of human SF295 cells assessed as growth inhibition at 10 uM by sulforhodamine B assay
TK-10 = test: Growth inhibition of human TK10 cells assessed as growth inhibition at 10 uM by sulforhodamine B assay; settings: read-out: GI
HOP-62 = test: Growth inhibition of human HOP62 cells assessed as cell growth at 10 uM by sulforhodamine B assay; settings: read-out: Activity

C/C=C(/C)C(=O)O[C@@H]1CC(C)(C)C[C@H]2C3=CC[C@@H]4[C@@]5(C)CC[C@H](O)C(C)(C)[C@@H]5CC[C@@]4(C)[C@]3(C)CC[C@@]12C(=O)O [Reduced Lantadene A]
inhibition of growth at 10 µM (M14): 71.3%
growth at 10 µM (SF-539): 43%
inhibition of growth at 10 µM (NCI-H460): 64.9%
inhibition of growth at 10 µM (OVCAR-4): 36.8%
growth at 10 µM (MCF7): 61%
inhibition of growth at 10 µM (MDA-MB-468): 33.9%
growth inhibition (GI) (786-0): Active
growth at 10 µM (MDA-MB-435): 64.9%
growth at 10 µM [1]: 69.8%
inhibition of growth at 10 µM (SK-MEL-28 [2]): 66.3%
inhibition of growth at 10 µM (SN12C): 94.2%
growth at 10 µM (OVCAR-3 [3]): 32%
inhibition of growth at 10 µM (NCI-H522 [4]): 50.3%
inhibition of growth at 10 µM (PC-3 [5]): 66.7%
growth at 10 µM (HCT-15): 21.2%
inhibition of growth at 10 µM (U-251): 61.8%
growth at 10 µM (OVCAR-8): 57.7%
growth at 10 µM [6]: 26.4%
growth at 10 µM (NCI-H522 [7]): 49.7%
growth inhibition (GI) (A498): Active
growth inhibition (GI) (NCI-H322M): Active
growth at 10 µM (SK-MEL-2): 54.1%
growth at 10 µM (OVCAR-5): 64%
growth at 10 µM (A549): 27.4%
inhibition of growth at 10 µM (SF-268): 74.1%
inhibition of growth at 10 µM (CAKI-1 [8]): 70.5%
inhibition of growth at 10 µM (MOLT-4): 58.6%
growth at 10 µM (CAKI-1 [9]): 29.5%
inhibition of growth at 10 µM (HCT-116): 80%
inhibition of growth at 10 µM (RPMI-8226 [10]): 78.9%
inhibition of growth at 10 µM (HT-29): 44.2%
inhibition of growth at 10 µM (LOX IMVI): 57.3%
growth at 10 µM (SF-295 [11]): -14.4%
inhibition of growth at 10 µM [12]: 73.6%
growth at 10 µM (MDA-MB-231): 22.2%
growth at 10 µM (NCI-H226 [13]): 42.1%
growth at 10 µM (CCRF-CEM): 45.8%
growth at 10 µM (UACC-62): -28.1%
inhibition of growth at 10 µM (OVCAR-3 [14]): 68%
inhibition of growth at 10 µM (NCI-H23): 35.3%
growth at 10 µM (RPMI-8226 [15]): 21.1%
inhibition of growth at 10 µM (NCI-H226 [16]): 57.9%
growth at 10 µM (SK-MEL-28 [17]): 33.7%
inhibition of growth at 10 µM (SK-OV-3): 58.2%
growth at 10 µM (PC-3 [18]): 33.3%
growth inhibition (GI) (SF-295 [19]): Active
inhibition of growth at 10 µM (TK-10): 33.2%
growth at 10 µM (HOP-62): 24.3%

CC(C)=CC(=O)O[C@@H]1CC(C)(C)C[C@H]2C3=CC[C@@H]4[C@@]5(C)CC[C@H](O)C(C)(C)[C@@H]5CC[C@@]4(C)[C@]3(C)CC[C@@]12C(=O)O [Reduced Lantadene B]
inhibition of growth at 10 µM (M14): < 10%
growth at 10 µM (SF-539): 54.7%
inhibition of growth at 10 µM (NCI-H460): 49.7%
inhibition of growth at 10 µM (OVCAR-4): 29.3%
growth at 10 µM (MCF7): 62.7%
inhibition of growth at 10 µM (MDA-MB-468): < 10%
inhibition of growth at 10 µM (786-0; read-out: GI): 38.2%
growth at 10 µM (MDA-MB-435): 95.3%
growth at 10 µM [1]: 54.5%
inhibition of growth at 10 µM (SK-MEL-28 [2]): 11.7%
inhibition of growth at 10 µM (SN12C): 49.1%
growth at 10 µM (OVCAR-3 [3]): 73.9%
inhibition of growth at 10 µM (NCI-H522 [4]): 32.4%
inhibition of growth at 10 µM (PC-3 [5]): 54.6%
growth at 10 µM (HCT-15): 25.1%
inhibition of growth at 10 µM (U-251): 60.8%
growth at 10 µM (OVCAR-8): 59.9%
growth at 10 µM [6]: 62%
growth at 10 µM (NCI-H522 [7]): 67.7%
inhibition of growth at 10 µM (A498; read-out: GI): < 10%
inhibition of growth at 10 µM (NCI-H322M; read-out: GI): 40.3%
growth at 10 µM (SK-MEL-2): 86.5%
growth at 10 µM (OVCAR-5): 119%
growth at 10 µM (A549): 23.5%
inhibition of growth at 10 µM (SF-268): < 10%
inhibition of growth at 10 µM (CAKI-1 [8]): 64.4%
inhibition of growth at 10 µM (MOLT-4): 50.4%
growth at 10 µM (CAKI-1 [9]): 35.6%
inhibition of growth at 10 µM (HCT-116): 72.8%
inhibition of growth at 10 µM (RPMI-8226 [10]): 76.3%
inhibition of growth at 10 µM (HT-29): 50.7%
inhibition of growth at 10 µM (LOX IMVI): 46.8%
growth at 10 µM (SF-295 [11]): 44.6%
inhibition of growth at 10 µM [12]: 38%
growth at 10 µM (MDA-MB-231): 81.3%
growth at 10 µM (NCI-H226 [13]): 78.7%
growth at 10 µM (CCRF-CEM): 27.4%
growth at 10 µM (UACC-62): 67.2%
inhibition of growth at 10 µM (OVCAR-3 [14]): 26.1%
inhibition of growth at 10 µM (NCI-H23): 36.6%
growth at 10 µM (RPMI-8226 [15]): 23.7%
inhibition of growth at 10 µM (NCI-H226 [16]): 21.3%
growth at 10 µM (SK-MEL-28 [17]): 88.3%
inhibition of growth at 10 µM (SK-OV-3): 10.6%
growth at 10 µM (PC-3 [18]): 45.4%
inhibition of growth at 10 µM (SF-295 [19]; read-out: GI): 55.4%
inhibition of growth at 10 µM (TK-10): 20.1%
growth at 10 µM (HOP-62): 53.7%
